Assays:
[1] = test system: AKT phosphorylation; assay: Pathway modulation in MV4-11 tumor xenografts, pAKT; format: in vivo, mice; conditions: MV4-11 tumors, 50 mg/kg oral, 8 hrs
Method: (§1) MV4-11 cells propagated in vitro were implanted subcutaneous into the right flank of 9-week old female NCr nu/nu mice. On the day of implant, MV4-11 cells were harvested during log phase growth and resuspended in phosphate buffered saline (PBS) containing 50% Matrigel™ (BD Biosciences) at a concentration of 1×10^8 cells/mL. Xenografts were initiated by subcutaneously implanting 1×10^7 MV-4-11 cells (0.1 mL suspension) into the right flank of each test animal and tumors were monitored as their volumes approached the target range of 175 to 225 mm^3. Two weeks after implantation, animals were assigned to individual groups of 3 animals with and average tumor volume of approximately 200 mm^3. […] Eight hours post-dose, full blood volume was collected by cardiac puncture under isoflurane anesthesia and tumors were excised and snapfrozen in liquid nitrogen and stored at −80° C. until further analysis. Tumors were pulverized in liquid nitrogen using a Biopulverizer and split into two sample tubes: one for Western blot analysis and one for analysis of compound levels by LC-MS/MS. Western blot analysis was performed as described above. […] Standards and samples were analyzed on a PE Sciex API4000 instrument and compound concentration was quantified and back-calculated to ng compound per g tumor tissue and converted to M concentration assuming 1 g tumor tissue equals 1 mL volume.

[2] = Compound concentration in MV4-11 tumors by LC-MS/MS; format: in vivo, mice; conditions: 50 mg/kg oral
Method: as §1

[3] = test system: hematologic tumor cell lines; assay: MTS cell proliferation assay, panel of hematologic cancer cell lines; format: cell-based; conditions: range over 16 cell lines, FIG. 3; read-out: potency in the cell proliferation assay (EC50)
Method: (§2) Cell proliferation was measured using the CellTiter 96 Aqueous Non-Radioactive Cell Proliferation Assay (Promega). The CellTiter 96® AQueous Assay is composed of solutions of a tetrazolium compound [3-(4,5-dimethylthiazol-2-yl)-5-(3-carboxymethoxyphenyl)-2-(4-sulfophenyl)-2H-tetrazolium, inner salt; MTS] and an electron coupling reagent (phenazine methosulfate) PMS. MTS is bioreduced by cells into a formazan product that is soluble in tissue culture medium. The absorbance of the formazan product at 490 nm can be measured directly from assay plates without additional processing. The quantity of formazan product as measured by the amount of 490 nm absorbance is directly proportional to the number of living cells in culture. Cells were seeded into 96-well or 384-well clear plates in a volume of 200 μL (96-well) or 50 μL (384-well) at optimized densities ranging from 1,000 to 40,000 cells per well for 96-well plates or 1,200 to 25,000 cells per well for 384-well plates depending on cell-line. After 4-6 hr recovery, serially diluted compounds in DMSO were added to the cells using (0.1% v/v final DMSO concentration). Cells were then grown at 37° C. in a humidified incubator with 5% CO2 for 72 hr. A 20:1 [3-(4,5-dimethylthiazol-2-yl)-5-(3-carboxymethoxyphenyl)-2-(4-sulfophenyl)-2H-tetrazolium](MTS):phenazine methosulfate (PMS) solution in DPBS was made immediately before use, added to each well, and cells were incubated for 1.5 hr at 37° C. The absorbance at 490 nm was then measured using a platereader. Absorbance values were normalized as percent of control (cells incubated in the presence of 0.1% v/v DMSO). Sigmoidal dose-response curves were plotted using log(inhibitor) vs. response—Variable slope (four parameters) model with a top value constrained to 100% (GraphPad Prism version 6.00 for Windows, GraphPad Software, La Jolla California USA). […] Curves for compounds that reached a plateau were matched exactly to the measurement points. […] To determine potential of compounds of the invention to affect viability of hematological cancers, cell lines representing various tumor types were selected and tested. Human cell lines tested were: MOLM-13 (acute myeloid leukemia (AML)), MV4-11 (AML), U-2932 (ABC-diffuse large B cell lymphoma), U-937 (histiocytic lymphoma), U-266 (multiple myeloma), RPMI-8226 (multiple myeloma), CMK (megakaryoblastic cell line), SU-DHL-4 (GCB-diffuse large B cell lymphoma), KG1 (AML), Mec-1 (chronic B-cell leukemia), MOLM-16 (AML), Jeko (B-cell lymphoma), WSU-DLCL2 (B-cell lymphoma), JJN3 (plasma cell leukemia), SU-DHL-6 (GCB-diffuse large B cell lymphoma), and Z-138 (mantle cell lymphoma). In addition, two murine cell lines were tested: A20 […].

[4] = test system: P-PDK1; assay: Pathway modulation in MV4-11 tumor xenografts, pPDK1; format: in vivo, mice; conditions: MV4-11 tumors, 50 mg/kg oral, 8 hrs
[5] = test system: P-PDK1; assay: Western blot, PDK1 phosphorylation in C1498 cells; format: cell-based, murine; conditions: C1498
Method: (§3) For phosphoprotein analyses, cells were seeded into 10 cm petri dishes (10×10^6 cells/dish) in media supplemented with 10% FBS and penicillin/streptomycin. After cells recovered for 1 hr at 37° C., compounds were added in DMSO (0.1% final) and incubated for 4 or 24 hr at 37° C. Cells were then harvested by centrifugation and washed with cold PBS. Cell pellets were resuspended in cell extraction buffer (Invitrogen) supplemented with 2×Halt™ protease and phosphatase inhibitor cocktail (Thermo Scientific), 2 mM sodium orthovanadate, 10 mM EDTA and 4 mM PMSF. Samples were lysed by sonication and incubated on ice for 30 min. Cell debris was removed by centrifugation and protein concentrations were determined using the BCA Protein Assay Kit (Pierce). The clarified lysate was diluted in LDS sample buffer with reducing agent (Life Technologies). […] Gels were run at 110 V and proteins were transferred to a PVDF membrane. Membranes were blocked in TBS blocking buffer (Li-Cor Biosciences) for 1 hr. Primary antibodies (Cell Signaling, Sant Cruz Biotechnology) were added (1:1,000 dilution) in blocking buffer with 0.1% Tween-20 and 1:20,000 dilution of β-actin antibody and incubated for 14 hr at 4° C. […] Bands were quantitated using ImageJ.

[6] = test system: Molm-13; assay: MTS cell proliferation assay, Molm-13; format: cell-based; conditions: Homo sapiens; Molm-13, 72 hr
Method: as §2

[7] = test system: U-2932; assay: MTS cell proliferation assay, U-2932; format: cell-based; conditions: Homo sapiens, U2932; U-2932, 72 hr
Method: as §2

[8] = test system: A20; assay: MTS cell proliferation assay, A20; format: cell-based, murine; conditions: Mus musculus; A20, 72 hr
Method: as §2

[9] = test system: P-AKT; assay: Western blot, AKT phosphorylation in A20 cells; format: cell-based, murine
Method: For phosphoprotein analyses, cells were seeded into 10 cm petri dishes (10×10^6 cells/dish) in media supplemented with 10% FBS and penicillin/streptomycin. After cells recovered for 1 hr at 37° C., compounds were added in DMSO (0.1% final) and incubated for 4 or 24 hr at 37° C. Cells were then harvested by centrifugation and washed with cold PBS. Cell pellets were resuspended in cell extraction buffer (Invitrogen) supplemented with 2×Halt™ protease and phosphatase inhibitor cocktail (Thermo Scientific), 2 mM sodium orthovanadate, 10 mM EDTA and 4 mM PMSF. Samples were lysed by sonication and incubated on ice for 30 min. Cell debris was removed by centrifugation and protein concentrations were determined using the BCA Protein Assay Kit (Pierce). The clarified lysate was diluted in LDS sample buffer with reducing agent (Life Technologies). […] Gels were run at 110 V and proteins were transferred to a PVDF membrane. Membranes were blocked in TBS blocking buffer (Li-Cor Biosciences) for 1 hr. Primary antibodies (Cell Signaling, Sant Cruz Biotechnology) were added (1:1,000 dilution) in blocking buffer with 0.1% Tween-20 and 1:20,000 dilution of β-actin antibody and incubated for 14 hr at 4° C. Blots were washed in TBS-T. Label-conjugated goat anti-rabbit secondary antibody (IRdye® 800CW; Li-Cor Biosciences) was added in blocking buffer with 0.1% Tween-20 and 0.02% SDS and incubated for 1 hr. After washing in TBS-T followed by TBS, membranes were scanned on an Odyssey imaging system (Li-Cor Biosciences). Bands were quantitated using ImageJ.

[10] = test system: RPMI-8226; assay: MTS cell proliferation assay, RPMI-8226; format: cell-based; conditions: Homo sapiens; RPMI-8226, 72 hr
Method: as §2

[11] = test system: Jeko; assay: MTS cell proliferation assay, Jeko; format: cell-based; conditions: Homo sapiens, 72 hr
Method: as §2

[12] = test system: P-RSK2; assay: Western blot, RSK2 phosphorylation in C1498 cells; format: cell-based, murine; conditions: C1498
Method: as §3

[13] = test system: MV4-11; assay: MTS cell proliferation assay, MV4-11; format: cell-based, human
Method: (§4) Cell proliferation was measured using the CellTiter 96 Aqueous Non-Radioactive Cell Proliferation Assay (Promega). […] MTS is bioreduced by cells into a formazan product that is soluble in tissue culture medium. The absorbance of the formazan product at 490 nm can be measured directly from assay plates without additional processing. The quantity of formazan product as measured by the amount of 490 nm absorbance is directly proportional to the number of living cells in culture. Cells were seeded into 96-well or 384-well clear plates in a volume of 200 μL (96-well) or 50 μL (384-well) at optimized densities ranging from 1,000 to 40,000 cells per well for 96-well plates or 1,200 to 25,000 cells per well for 384-well plates depending on cell-line. After 4-6 hr recovery, serially diluted compounds in DMSO were added to the cells using (0.1% v/v final DMSO concentration). Cells were then grown at 37° C. in a humidified incubator with 5% CO2 for 72 hr. A 20:1 [3-(4,5-dimethylthiazol-2-yl)-5-(3-carboxymethoxyphenyl)-2-(4-sulfophenyl)-2H-tetrazolium](MTS):phenazine methosulfate (PMS) solution in DPBS was made immediately before use, added to each well, and cells were incubated for 1.5 hr at 37° C. The absorbance at 490 nm was then measured using a platereader. Absorbance values were normalized as percent of control (cells incubated in the presence of 0.1% v/v DMSO). Sigmoidal dose-response curves were plotted using log(inhibitor) vs. response—Variable slope (four parameters) model with a top value constrained to 100% (GraphPad Prism version 6.00 for Windows, GraphPad Software, La Jolla California USA). […] To determine potential of compounds of the invention to affect viability of hematological cancers, cell lines representing various tumor types were selected and tested. […] In addition, two murine cell lines were tested: A20 […].

[14] = test system: C1498; assay: MTS cell proliferation assay, C1498; format: cell-based, murine
Method: as §4

| tumor exposure [2] [mM] | EC50 [3] [µM] | EC50 [6] [nM] | EC50 [10] [nM] | EC50 ([13]; Homo sapiens, MV4-11, 72 hr, read-out: MTS proliferation assay) [nM] | Compound | inhibition of P-AKT in tumors [1] | inhibition of P-PDK1 [4] [%] | inhibition of PDK1 in tumors [4] [%] | effect on PDK1 phosphorylation [5] | EC50 [7] [µM] | EC50 [8] [nM] | P-AKT levels [9] | EC50 [11] [nM] | effect on RSK2 phosphorylation [12] | plateau of growth inhibition curve ([13]; MV4-11) | plateau of growth inhibition curve ([14]; C1498) | EC50 ([14]; Mus musculus, C1498, 72 hr, read-out: MTS proliferation assay) [nM] |
| --- | --- | --- | --- | --- | --- | --- | --- | --- | --- | --- | --- | --- | --- | --- | --- | --- | --- |
| 0.4 to 1.4 | 0.05 to 6.1 | – | – | – | CS(=O)(=O)N1CCN(Cc2cc3nc(-c4cccc5[nH]ncc45)nc(N4CCOCC4)c3s2)CC1 [GDC-0941, pictilisib] | no inhibition | 25 | 45 | – | – | – | – | – | – | – | – | – |
| – | 0.1 to 10.7 | 1370 | 906 | 1300 | NC1(c2ccc(-c3nc4ccn5c(=O)[nH]nc5c4cc3-c3ccccc3)cc2)CCC1 [MK-2206, reference compound] | – | – | – | appears to enhance | 4.88 | 138 | sensitive | 980 | appears to enhance | do not reach a plateau below 20% | do not reach a plateau below 20% | 812 |
